Measured values from patent US7820629B2, “Galactose derivative, drug carrier and medicinal composition” (Nippon Shinyaku Co., Ltd., priority 2006, dated 2010).

System: HuH-7 cells (human hepatoma cell line)
Assay: Evaluation of liver-targeting: uptake of tritium-labeled siRNA composition
Format: cell-based
Conditions: carriers of Examples 2 to 6 or Comparative Example 1 with tritium-labeled siRNA 100 nM, eight hours, by content (mg) of the Example 1 derivative
Description: (1) Preparation of a Nucleic Acid Solution
A nucleic acid solution containing a tritium-labeled siRNA composed of an oligo RNA having a sequence of SEQ ID NO 1 and an oligo RNA having a sequence of SEQ ID NO 2 was prepared by introducing tritium-labeled [2,5′,8-3H]adenosine 5′-triphosphate ammonium salt (manufactured by Amersham Bioscience), using in-vitro Transcription T7 Kit (manufactured by Takara Bio). The siRNA concentration in the nucleic acid solution was 20 μM. The specific activity was 6.4×10^5 dpm/μg.
341.25 μL of a nucleic acid solution containing 20 μM of a tritium-unlabeled siRNA composed of an oligo RNA having a sequence of SEQ ID NO 1 and an oligo RNA having a sequence of SEQ ID NO 2 was added to 8.75 μL of the nucleic acid solution prepared in the above step, thereby preparing a nucleic acid solution having a specific activity of 1.6×10^4 dpm/μg.
(2) Preparation of a Composition […]
HuH-7 cells (human hepatoma cell line) were seeded on a 6-well plate at 2.5×10^5 cells/well, and were incubated for 18 hours at 37° C. under 5% CO2. […] 4 mL of a liquid scintillation cocktail (Emulsifier Scintillator Plus, manufactured by Perkin Elmer) was added to each of the vials and mixed well, and the radioactivity was counted with a liquid scintillation counter (manufactured by Perkin Elmer).

N-[1-(D)-deoxylactito-1-yl]oleamide [Example 1]
liver-targeting potency (radioactivity of cells, FIG. 1): increases depending on the content
